#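 Five concentrations, 48 hours, 96-well plates. GI50 marks 50% less growth.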 Activity calls are given as the source filed them. No stated cut-off is given here; in the data, active = GI50 up to about 1.1 µM and inactive = higher.
# Assays:
# Test in all cases: DTP human tumour cell line panel, 48 h
# CAKI-1 = system: CAKI-1
# IGROV-1 = system: IGROV-1
# M14 = system: M14
# 786-0 = system: 786-0
# COLO 205 = system: COLO 205
# OVCAR-5 = system: OVCAR-5
# KM12 = system: KM12
# HL-60 = system: HL-60
# NCI-H522 = system: NCI-H522
# SN12C = system: SN12C
# RXF 393 = system: RXF 393
# SW-620 = system: SW-620
# SNB-19 = system: SNB-19
# MOLT-4 = system: MOLT-4
# NCI-H460 = system: NCI-H460
# HCC 2998 = system: HCC 2998
# SK-MEL-2 = system: SK-MEL-2
# HCT-15 = system: HCT-15
SMILES,GI50 (CAKI-1),GI50 (IGROV-1),GI50 (M14),GI50 (786-0),GI50 (COLO 205),GI50 (OVCAR-5),GI50 (KM12),GI50 (HL-60),GI50 (NCI-H522),GI50 (SN12C),GI50 (RXF 393),GI50 (SW-620),GI50 (SNB-19),GI50 (MOLT-4),GI50 (NCI-H460),GI50 (HCC 2998),GI50 (SK-MEL-2),GI50 (HCT-15) [µM]
C[N+]12c3ccccc3O[B-]1(c1ccccc1)Oc1ccccc12 (configuration not stated),63.1 µM (inactive),25.4 µM (inactive),15 µM (inactive),35.9 µM (inactive),63.8 µM (inactive),77.4 µM (inactive),25.2 µM (inactive),14.5 µM (inactive),15.3 µM (inactive),31.9 µM (inactive),25.4 µM (inactive),28.1 µM (inactive),66.1 µM (inactive),5.74 µM (inactive),,,,
COC(=O)C1C(C(=O)OC)C2C(=O)C3C(C(=O)OC)C(C(=O)OC)C3C(=O)C12 (configuration not stated),> 100 µM (inactive),> 100 µM (inactive),,> 100 µM (inactive),> 100 µM (inactive),> 100 µM (inactive),> 100 µM (inactive),> 100 µM (inactive),> 100 µM (inactive),> 100 µM (inactive),25.4 µM (inactive),> 100 µM (inactive),> 100 µM (inactive),> 100 µM (inactive),> 100 µM (inactive),> 100 µM (inactive),> 100 µM (inactive),
O=C(Cc1ccccc1)NN1C(=O)C(Cl)C1c1ccccc1O (configuration not stated),40.2 µM (inactive),25.8 µM (inactive),14.1 µM (inactive),16.8 µM (inactive),16.4 µM (inactive),15.4 µM (inactive),,3.21 µM (inactive),3.27 µM (inactive),27.9 µM (inactive),36 µM (inactive),15.8 µM (inactive),16.9 µM (inactive),3.22 µM (inactive),4.62 µM (inactive),20.3 µM (inactive),17.8 µM (inactive),5.85
CNC1=Nc2ccc(Cl)cc2C(c2ccccc2)=NN1C,28.5 µM (inactive),> 100 µM (inactive),> 100 µM (inactive),54.7 µM (inactive),> 100 µM (inactive),> 100 µM (inactive),> 100 µM (inactive),46 µM (inactive),> 100 µM (inactive),> 100 µM (inactive),17.5 µM (inactive),> 100 µM (inactive),> 100 µM (inactive),36.2 µM (inactive),> 100 µM (inactive),24.9 µM (inactive),73.5 µM (inactive),> 100
Cc1noc2c1C(=O)CCC2,> 100 µM (inactive),,> 100 µM (inactive),> 100 µM (inactive),> 100 µM (inactive),> 100 µM (inactive),,> 100 µM (inactive),> 100 µM (inactive),> 100 µM (inactive),> 100 µM (inactive),> 100 µM (inactive),,> 100 µM (inactive),,,> 100 µM (inactive),
